Data from patent publication US11980596B2 (priority 2017, dated 2024).

Tested on: patients with treatment-resistant depression (TRD)
Test: MADRS total score, response and remission (Example 7, phase 2 dose-response study)
Type: in vivo, human
Settings: for MADRS: treatment difference relative to placebo: day 15, completers, same treatment 2 weeks; for MADRS: LS mean difference vs placebo, range over dose groups: 28, 56, 84 mg
Experimental: At the beginning of double-blind Period 1, eligible participants were randomized (3:1:1:1) to intranasal placebo or esketamine 28, 56, or 84 mg, twice weekly (days 1 and 4) based on the first of two computer-generated randomization schedules (Period 1 and Period 2). Randomization was balanced by using randomly permuted blocks and stratified by study center. At the end of Period 1, those randomized to placebo who had moderate-to-severe symptoms (assessed by Quick Inventory of Depressive Symptomatology-Self Report (Trivedi 2016 and Rush, “The 16-item Quick Inventory of Depressive Symptomatology (QIDS) Clinician Rating (QIDS-C) and Self-Report (QIDS-SR): A psychometric evaluation in patients with chronic major depression”, Biol. Psychiatry, 2003, 54(5):573-583) [QIDS-SR16] total score: moderate, 11-16; severe, >16) were re-randomized (1:1:1:1) to intranasal esketamine 28, 56, or 84 mg or placebo, twice weekly (days 8 and 11), while those having mild or no symptoms continued on placebo. To maintain the blind, all participants completed an identical process prior to entry into Period 2, whether or not they were re-randomized. Regardless of response in the double-blind phase, all participants were eligible to enter the optional open-label phase. Esketamine (56 mg) was administered on the first day of the open-label phase (study day 15); subsequent doses could be adjusted (range: 28 to 84 mg) based on investigator's clinical judgment, with administration twice weekly for first 2 weeks, weekly for next 3 weeks, then every 2 weeks thereafter.
Efficacy was assessed with the Montgomery-Asberg Depression Rating Scale (MADRS; Montgomery, “A new depression scale designed to be sensitive to change”, Br. J. Psychiatry, 1979, 134:382-389; Williams, “Development and reliability of a structured interview guide for the Montgomery Asberg Depression Rating Scale (SIGMA)”, Br. J. Psychiatry, 2008, 192(1):52-58) on days 1 (pre-dose and 2 hour post-dose), 2, 8 (pre-dose), 9, and 15, using the structured interview guide (SIGMA). See, Williams 2008.
The primary efficacy endpoint—change from baseline (pre-dose, day 1 in each period) to endpoint (day 8 in each period) in MADRS total score—was analyzed using the analysis of covariance (ANCOVA) model. For Period 1, the model included treatment and country as factors, and baseline MADRS total score as covariate. For Period 2, the model included treatment and country as factors, Period 2 baseline QIDS-SR16 score (moderate or severe), and Period 2 baseline MADRS total score as a continuous covariate.
Given the consistency between Periods 1 and 2 results (Chi 2016), esketamine dose groups were compared to placebo using a combined test on the weighted test statistics for each period in the double-blind treatment phase. A dose-response analysis on primary efficacy endpoint was performed using data combined from both periods. The Multiple Comparison Procedure—Modelling (MCP-Mod) methodology was performed (Williams 2008; Bretz, “Combining multiple comparisons and modeling techniques in dose-response studies”, Biometrics, 2005, 61:738-748).

[1] = OL endpoint - day 74, Placebo/Esketamine/OL Esketamine
[2] = Period 1, study period endpoint, esketamine 28 mg
[3] = Period 2, 2 hours, esketamine 84 mg
[4] = Period 2, 24 hours, esketamine 84 mg
[5] = Period 2, study period endpoint, esketamine 84 mg
[6] = Week 8 (Follow-up), Placebo/Esketamine/OL Esketamine

With `CN[C@]1(c2ccccc2Cl)CCCCC1=O` [esketamine, (S)-2-(2-chlorophenyl)-2-(methylamino)cyclohexanone] the “MADRS: treatment difference relative to placebo” value (28 mg) was −6.0, the “MADRS: treatment difference relative to placebo” value (56 mg) was −8.3 and the “Proportion of responders (MADRS)” value (84 mg, Period 2 endpoint) was 50.0%. The “Remitted (MADRS)” value (84 mg, after 2 weeks of treatment) was 40.0%, the “MADRS response (≥50% improvement), %” value [1] was 50.0% and the “Remission (MADRS ≤10): No, %” value [1] was 60.0%. For the same compound, the “Remission (MADRS ≤10): Yes, %” value [1] was 40.0%, the “MADRS response (≥50% improvement), %” value (OL endpoint - day 74, Placebo/Placebo/OL Esketamine) was 100% and the “MADRS Remitters, %” value (Period 1, 2 hours, esketamine 84 mg) was “(25.0) %”. For the same compound, the “MADRS Remitters, %” value (Period 1, 24 hours, esketamine 84 mg) was “(25.0) %”, the “MADRS Remitters, %” value [2] was “(9.1) %” and the “MADRS Responders, %” value [2] was “(9.1) %”. The “MADRS Remitters, %” value (Period 1, study period endpoint, esketamine 56 mg) was “(9.1) %”, the “MADRS Remitters, %” value (Period 1, study period endpoint, esketamine 84 mg) was “(25.0) %” and the “MADRS: LS mean difference vs placebo, range over dose groups” value (Period 1) was −5.0 to −10.5. For the same compound, the “MADRS Remitters, %” value [3] was “(40.0) %”, the “MADRS Responders, %” value [3] was “(40.0) %” and the “MADRS Remitters, %” value [4] was “(20.0) %”. The “MADRS Responders, %” value [4] was “(40.0) %”, the “MADRS Remitters, %” value [5] was “(20.0) %” and the “MADRS Responders, %” value [5] was “(20.0) %”. The “MADRS: LS mean difference vs placebo, range over dose groups” value (Period 2) was −3.1 to −6.9, the “MADRS response (≥50% improvement), %” value [6] was 25.0% and the “Remission (MADRS ≤10): No, %” value [6] was 75.0%. For the same compound, the “Remission (MADRS ≤10): Yes, %” value [6] was 25.0%.
